For one compound, MIC and solubility results are on record in patent US11517512B2, “Personal care compositions comprising zinc : usnic acid complexes and methods of use” (Colgate-Palmolive Company, priority 2017, dated 2022).

Series [1] deals with Staphylococcus aureus. The series is described as follows: Minimal inhibitory concentration, broth micro dilution method. To be noted: overnight incubation, OD 610 nm, stock in DMSO, read-out: MIC S. aureus (G+). The format is cell-based. As to the method: (§1) Minimal inhibition concentration (MIC) is the lowest concentration of an antimicrobial agent that can inhibit the visible growth of a microorganism after overnight incubation. The MIC values of zinc:usnate complex and usnic acid against Staphylococcus aureus and Escherichia coli were determined with the broth micro dilution method. Briefly, 0.1% stock solutions were prepared in dimethyl sulfoxide (DMSO). Using a 96-well microtitre plate, the corresponding testing concentrations are 500, 250, 125, 62, 31, 16, 8, 4, 2, 1, 0.5 and 0.2 ppm, respectively. The optic density readings at 610 nm for each well were used to assess the level of bacterial growth.

For series [2], the system named is Escherichia coli. The description is as above. The following applies: overnight incubation, OD 610 nm, stock in DMSO, read-out: MIC E. Coli (G−). It counts as cell-based. The method, then:
as §1

The conditions of series [3]: DI water at 35° C.; Jin et al., J Solution Chem., 2013; cited from earlier work.

In brackets after ≈: the same amount, converted by molar mass. Where only a bound is given, the exact number is not on record here.

A word on the MIC: it is the smallest concentration in the dilution series that meets the test's criterion for growth inhibition. Regarding `CC(=O)c1c(O)c(C)c(O)c2c1OC1=CC(=O)C(C(C)=O)C(=O)C12C` (stereo not drawn) [Usnic Acid, usnic acid], the MIC in series [1] is 4 µg/mL (≈ 11.6 µM); in series [2], over 125 µg/mL. For the same compound, the solubility in series [3] was 6.3 ppm.
